The values below come from patent EP0674651B1, “SUBSTITUTED 6-AZAANDROSTENONES” (priority 1992, dated 1994).

For data set [1], the target named is T1, bovine adrenal 3β-hydroxy-Δ^5-steroid dehydrogenase / 3-keto-Δ^5-steroid isomerase (3βHSD) (Bos taurus, UniProt P14893).
T1 construct: host or cells: bovine adrenal
T1 sequence (P14893 1-373): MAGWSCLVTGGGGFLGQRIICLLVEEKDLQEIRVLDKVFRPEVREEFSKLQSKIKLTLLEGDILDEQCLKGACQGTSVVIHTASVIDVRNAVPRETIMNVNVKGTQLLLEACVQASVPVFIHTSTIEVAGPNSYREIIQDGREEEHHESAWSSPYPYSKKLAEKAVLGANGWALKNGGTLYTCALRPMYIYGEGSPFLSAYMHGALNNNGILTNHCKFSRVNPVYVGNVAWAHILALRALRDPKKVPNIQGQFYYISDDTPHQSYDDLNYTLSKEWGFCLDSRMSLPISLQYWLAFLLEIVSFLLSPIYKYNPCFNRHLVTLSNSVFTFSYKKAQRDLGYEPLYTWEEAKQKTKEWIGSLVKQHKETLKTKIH
To be noted: cited from earlier work.

Data set [2] deals with T2, porcine granulosa cell 3β-hydroxy-Δ^5-steroid dehydrogenase / 3-keto-Δ^5-steroid isomerase (3βHSD) (Sus scrofa, UniProt Q9N119).
T2 construct: host or cells: porcine granulosa cells
T2 sequence (Q9N119 1-373): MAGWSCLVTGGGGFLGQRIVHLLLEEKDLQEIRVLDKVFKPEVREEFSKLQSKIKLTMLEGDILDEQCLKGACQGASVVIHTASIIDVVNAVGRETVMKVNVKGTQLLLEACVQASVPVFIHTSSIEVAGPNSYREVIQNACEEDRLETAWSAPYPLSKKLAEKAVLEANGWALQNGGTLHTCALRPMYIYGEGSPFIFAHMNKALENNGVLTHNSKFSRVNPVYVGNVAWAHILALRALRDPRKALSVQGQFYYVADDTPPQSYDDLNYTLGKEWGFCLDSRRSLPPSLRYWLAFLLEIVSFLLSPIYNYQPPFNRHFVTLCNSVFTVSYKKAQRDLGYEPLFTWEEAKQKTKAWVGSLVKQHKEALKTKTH
To be noted: cited from earlier work.

For data set [3] the following is noted: literature reports; cited from earlier work.
The target in data set [4] is T3, human type 1 5α-reductase (Homo sapiens, UniProt P18405).
T3 sequence (P18405 1-259): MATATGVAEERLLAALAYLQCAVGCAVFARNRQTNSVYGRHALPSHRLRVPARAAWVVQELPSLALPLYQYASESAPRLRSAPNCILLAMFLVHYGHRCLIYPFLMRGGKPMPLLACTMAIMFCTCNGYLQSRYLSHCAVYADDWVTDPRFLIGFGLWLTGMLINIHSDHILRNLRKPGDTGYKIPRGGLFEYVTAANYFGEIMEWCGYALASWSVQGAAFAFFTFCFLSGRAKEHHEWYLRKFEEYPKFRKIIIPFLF
The data set is described as follows: 5α-reductase in vitro inhibitory activity, human type 1.

Data set [5] has as its target T4, human type 2 5α-reductase (Homo sapiens, UniProt P31213).
T4 sequence (P31213 1-254): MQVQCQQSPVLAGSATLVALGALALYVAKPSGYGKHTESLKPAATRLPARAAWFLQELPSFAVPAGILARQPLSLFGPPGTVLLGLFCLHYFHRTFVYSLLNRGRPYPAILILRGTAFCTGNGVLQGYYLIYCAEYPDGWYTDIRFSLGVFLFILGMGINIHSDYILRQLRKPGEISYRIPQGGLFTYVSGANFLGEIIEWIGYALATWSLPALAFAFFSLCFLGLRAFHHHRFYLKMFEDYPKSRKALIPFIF
The data set is described as follows: 5α-reductase in vitro inhibitory activity, human type 2.

Data set [6] has as its target Rat Prostatic 5α-reductase. The data set can be described thus: 5α-reductase in vitro inhibitory activity, rat prostatic. The following applies: read-out: IC50 Rat Prostatic; microsomes derived from prostate tissue from the rat.
Description: Microsomes were prepared by homogenization of the tissue or cells, followed by differential centrifugation of the homogenate. […] Corresponding incubations were carried out with no test compound as a control study.
The percentage of conversion of testosterone to DHT in the presence of test compounds compared to the corresponding conversion in the control study was estimated using high pressure liquid chromatography (HPLC) with radiochemical detection.

Like-named read-outs stand apart in the source and are kept apart here.

As to `CCN(CC)C(=O)[C@H]1CC[C@H]2[C@@H]3CC[C@H]4N(C)C(=O)CC[C@]4(C)[C@H]3CC[C@]12C` [Compound 4-MA], the “inhibition of 3βHSD” value in data set [1] and in data set [2] was “potent inhibition” throughout. For the same compound, the hepatotoxicity result in data set [3] is recorded as “hepatotoxicity”.

In the case of `CC(C)CC(=O)OC[C@H]1CC[C@H]2[C@@H]3CNC4=CC(=O)CC[C@]4(C)[C@H]3CC[C@]12C` [Compound 27, 17β-Hydroxymethyl-(3-methylbutyrate)-6-azaandrost-4-en-3-one], the IC50 (in general, the concentration that inhibits the measured activity by half) was less than 10 nM in data set [4], less than 10 nM in data set [5] and 10 to 100 nM in data set [6].

As to `C[C@]12CC[C@H]3[C@@H](CNC4=CC(=O)CC[C@@]43C)[C@@H]1CC[C@@H]2C(=O)NCc1ccco1` [Compound 19, 17β-N-(2-Furanyl)methyl-carbamoyl-6-azaandrost-4-en-3-one], the IC50 in data set [4] was more than 100 nM; in data set [5], 10 to 100 nM; in data set [6], 10 to 100 nM.

For the compound `C[C@]12CC[C@H]3[C@@H](CNC4=CC(=O)CC[C@@]43C)[C@@H]1CC[C@@H]2COC(=O)C(c1ccccc1)c1ccccc1` [Compound 28, 17β-Hydroxymethyl-(2,2-diphenylacetate)-6-azaandrost-4-en-3-one], the IC50 in data set [4] is 10 to 100 nM; in data set [5], 10 to 100 nM; in data set [6] it was less than 10 nM.

`CC(C)(Cc1ccc(F)cc1)NC(=O)[C@H]1CC[C@H]2[C@@H]3CNC4=CC(=O)CC[C@]4(C)[C@H]3CC[C@]12C` [Compound 32, 17β-N-(1,1-Dimethyl)-2-(4-fluorophenyl)ethyl-carbamoyl-6-azaandrost-4-en-3-one]: the IC50 was 10 to 100 nM in data set [4], less than 10 nM in data set [5] and less than 10 nM in data set [6].

Take `C[C@]12CC[C@H]3[C@@H](CNC4=CC(=O)CC[C@@]43C)[C@@H]1CC[C@@H]2C(=O)NCCc1ccccn1` [Compound 20, 17β-N-2-(2-Pyridyl)ethyl-carbamoyl-6-azaandrost-4-en-3-one]: the IC50 in data set [4] was more than 100 nM; in data set [5], 10 to 100 nM; in data set [6], 10 to 100 nM.

As for `C[C@]12CC[C@H]3[C@@H](CNC4=CC(=O)CC[C@@]43C)[C@@H]1CC[C@@H]2C(=O)NC(C1CCCCC1)C1CCCCC1` [Compound 34, 17β-N-(Dicyclohexyl)methyl-carbamoyl-6-azaandrost-4-en-3-one], the results for the IC50 in data set [4], in data set [5] and in data set [6] were 10 to 100 nM, less than 10 nM and less than 10 nM, respectively.

As to `CC(Cc1ccccc1)NC(=O)C1CCC2C3CNC4=CC(=O)CCC4(C)C3CCC12C` (stereo not drawn) [Compound 13, 17β-N-(α-Methyl)phenethyl-carbamoyl-6-azaandrost-4-en-3-one], the half-inhibitory concentration (IC50) in data set [4] is 10 to 100 nM; in data set [5], less than 10 nM; in data set [6] it was less than 10 nM.

`CC(C)Oc1ccc(C(=O)[C@H]2CC[C@H]3[C@@H]4CNC5=CC(=O)CC[C@]5(C)[C@H]4CC[C@]23C)cc1` [Compound 33, 17β-(1-Oxo-1 (4-isopropoxyphenyl)methyl)-6-azaandrost-4-en-3-one]: the IC50 is more than 100 nM in data set [4], 10 to 100 nM in data set [5] and 10 to 100 nM in data set [6].

Regarding “17β-N-(2-t-Butyl-5-(N-methyl)methylsulfonamide)phenyl-6-azaandrost-4-en-3-one [Compound 91]”, the IC50 in data set [4] (read-out: IC50 Human Type 1, microsomes of recombinant baculovirus infected SF9 cells, preincubated 10 minutes at pH 7.0, 100nM testosterone, 1 mM NADPH) is 10 to 100 nM; in data set [5] (read-out: IC50 Human Type 2, microsomes, preincubated 20 minutes at pH 6.0, 8nM testosterone, 1 mM NADPH), less than 10 nM; in data set [6], 10 to 100 nM.

Regarding `CC(NC(=O)[C@H]1CC[C@H]2[C@@H]3CNC4=CC(=O)CC[C@]4(C)[C@H]3CC[C@]12C)C(c1ccccc1)c1ccccc1` (stereo partly drawn) [Compound 45, 17β-N-(2,2-Diphenyl-1-methyl)ethyl-carbamoyl-6-azaandrost-4-en-3-one], the IC50 is more than 100 nM in data set [4], less than 10 nM in data set [5] and 10 to 100 nM in data set [6].

Turning to `C[C@]12CC[C@H]3[C@@H](CNC4=CC(=O)CC[C@@]43C)[C@@H]1CC[C@@H]2C(=O)NC(Cc1ccccc1)c1ccccc1` (stereo partly drawn) [Compound 17, 17β-N-(α-Phenyl)phenethyl-carbamoyl-6-azaandrost-4-en-3-one], the IC50 in data set [4] was 10 to 100 nM; in data set [5] it was less than 10 nM; in data set [6] it was less than 10 nM.

As to `C[C@]12CC[C@H]3[C@@H](CNC4=CC(=O)CC[C@@]43C)[C@@H]1CC[C@@H]2C(=O)NC(c1ccc(Cl)cc1)c1ccc(Cl)cc1` [Compound 47], the values for the IC50 in data set [4], in data set [5] and in data set [6] were 10 to 100 nM, less than 10 nM and less than 10 nM, respectively.

Turning to `C[C@]12CC[C@H]3[C@@H](CNC4=CC(=O)CC[C@@]43C)[C@@H]1CC[C@@H]2C(=O)NCc1ccc(F)cc1F` [Compound 42, 17β-N-(2,4-Difluoro)benzyl-carbamoyl-6-azaandrost-4-en-3-one], the IC50 in data set [4] is 10 to 100 nM; in data set [5], less than 10 nM; in data set [6], less than 10 nM.
